Read-outs that look alike come from different tables or passages of the source.
Target: T1, human APJ receptor (Homo sapiens, UniProt P35414)
T1 construct: expressed in transfected cells
T1 sequence (P35414 1-380): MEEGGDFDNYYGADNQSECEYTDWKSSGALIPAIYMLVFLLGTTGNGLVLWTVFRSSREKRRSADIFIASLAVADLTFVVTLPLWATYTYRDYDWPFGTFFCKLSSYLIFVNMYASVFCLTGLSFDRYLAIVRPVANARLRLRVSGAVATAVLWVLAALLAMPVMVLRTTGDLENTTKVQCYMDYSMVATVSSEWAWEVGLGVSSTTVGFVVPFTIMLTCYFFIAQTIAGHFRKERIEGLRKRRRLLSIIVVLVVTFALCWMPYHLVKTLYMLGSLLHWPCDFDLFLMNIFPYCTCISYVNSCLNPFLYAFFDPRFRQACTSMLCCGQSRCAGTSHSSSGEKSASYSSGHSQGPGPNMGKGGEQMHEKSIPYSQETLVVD
Assay: Intracellular cAMP accumulation assay (APJ hcAMP, HTRF)
Format: cell-based
Settings: HEK293 cells stably expressing human APJ, forskolin-stimulated cAMP, read-out: Human cAMP EC50
Outline: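 Inhibition of forskolin (2 μM)-stimulated cAMP, with […], was measured after 30 min compound exposure at room temperature in stably transfected HEK293 cells. HTRF ratios were converted to cAMP via standard curve, and EC50 values came from variable-slope sigmoidal concentration-response fitting.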

EC50 (Table 6) [nM]	EC50 (Table 7) [nM]	Compound	also measured
		COc1cccc(-c2c(-c3csc(C)n3)nc(O)c(C(=O)N3CCC(c4ncc(F)cc4F)C3)c2O)c1 (centres unmarked) [Example 129, 3-[3-(3,5-difluoropyridin-2-yl)pyrrolidine-1-carbonyl]-5-(3-methoxyphenyl)-6-(2-methyl-1,3-thiazol-4-yl)pyridine-2,4-diol]	EC50 (Table 5): 0.01 to 10 nM
0.01 to 10		CCOCc1nc(O)c(C(=O)N2CCC(c3ccc(F)cc3F)C2)c(O)c1-c1c(OC)cccc1OC (centres unmarked) [Example 131]	
0.01 to 10		CCOCc1nc(O)c(C(=O)N2CCC(c3ccc(F)cc3F)C2)c(O)c1-c1c(OC)cccc1OC (centres unmarked) [Example 132, 3-[3-(2,4-difluorophenyl)pyrrolidine-1-carbonyl]-5-(2,6-dimethoxyphenyl)-6-(ethoxymethyl)-4-hydroxy-1,2-dihydropyridin-2-one]	
0.01 to 10		CCOCc1nc(O)c(C(=O)N2CCC(c3c(F)cccc3F)C2)c(O)c1-c1c(OC)cccc1OC (centres unmarked) [Example 133, 3-[3-(2,6-difluorophenyl)pyrrolidine-1-carbonyl]-5-(2,6-dimethoxyphenyl)-6-(ethoxymethyl)-4-hydroxy-1,2-dihydropyridin-2-one]	
0.01 to 10		CCOCc1nc(O)c(C(=O)N2CCC(c3c(F)cccc3F)C2)c(O)c1-c1c(OC)cccc1OC (centres unmarked) [Example 134, 3-[3-(2,6-difluorophenyl)pyrrolidine-1-carbonyl]-5-(2,6-dimethoxyphenyl)-6-(ethoxymethyl)-4-hydroxy-1,2-dihydropyridin-2-one]	
0.01 to 10		CCCCc1nc(O)c(C(=O)N2CC[C@H](OCc3ccccc3)C2)c(O)c1-c1c(OC)cccc1OC [Example 136, 3-[(3S)-3-(benzyloxy)pyrrolidine-1-carbonyl]-6-butyl-5-(2,6-dimethoxyphenyl)pyridine-2,4-diol]	
10 to 100		CCOCc1nc(O)c(C(=O)N2CC[C@H](OCc3ccccc3)C2)c(O)c1-c1c(OC)cccc1OC [Example 137, 3-[(3S)-3-(benzyloxy)pyrrolidine-1-carbonyl]-5-(2,6-dimethoxyphenyl)-6-(ethoxymethyl)pyridine-2,4-diol]	
	0.01 to 10	CCCCc1nc(O)c(C(=O)N2CCN(Cc3cccc(F)c3F)CC2)c(O)c1-c1cccc(CC#N)c1 [Example 139, 2-[3-(2-butyl-5-{4-[(2,3-difluorophenyl)methyl]piperazine-1-carbonyl}-4,6-dihydroxypyridin-3-yl)phenyl]acetonitrile]	
	0.01 to 10	CCCCc1nc(O)c(C(=O)N2CCC(c3ncc(F)cc3F)C2)c(O)c1-c1cccc(C(C)C)c1 (centres unmarked) [Example 140, 6-butyl-3-[3-(3,5-difluoropyridin-2-yl)pyrrolidine-1-carbonyl]-5-[3-(propan-2-yl)phenyl]pyridine-2,4-diol]	
	0.01 to 10	CCCCc1nc(O)c(C(=O)N2CCC(c3ncc(F)cc3F)C2)c(O)c1-c1cccc(C(C)C)c1 (centres unmarked) [Example 141, 6-butyl-3-[3-(3,5-difluoropyridin-2-yl)pyrrolidine-1-carbonyl]-5-[3-(propan-2-yl)phenyl]pyridine-2,4-diol]	
	0.01 to 10	CCCCc1nc(O)c(C(=O)N2CCC(c3ncc(F)cc3F)C2)c(O)c1-c1cccc(OC)c1 (centres unmarked) [Example 142, 6-butyl-3-[3-(3,5-difluoropyridin-2-yl)pyrrolidine-1-carbonyl]-5-(3-methoxyphenyl)pyridine-2,4-diol]	
	0.01 to 10	CCCCc1nc(O)c(C(=O)N2CCC(c3ncc(F)cc3F)C2)c(O)c1-c1cccc(OC)c1 (centres unmarked) [Example 143, 6-butyl-3-[3-(3,5-difluoropyridin-2-yl)pyrrolidine-1-carbonyl]-5-(3-methoxyphenyl)pyridine-2,4-diol]	
	0.01 to 10	CCCCc1nc(O)c(C(=O)N2CCC(c3ncc(F)cc3F)C2)c(O)c1-c1cccc(CO)c1 (centres unmarked) [Example 144, 6-butyl-3-[3-(3,5-difluoropyridin-2-yl)pyrrolidine-1-carbonyl]-5-[3-(hydroxymethyl)phenyl]pyridine-2,4-diol]	
	0.01 to 10	CCCCc1nc(O)c(C(=O)N2CCC(c3ncc(F)cc3F)C2)c(O)c1-c1cccc(C(=O)NC(C)C)c1 (centres unmarked) [Example 145, 3-{2-butyl-5-[3-(3,5-difluoropyridin-2-yl)pyrrolidine-1-carbonyl]-4,6-dihydroxypyridin-3-yl}-N-(propan-2-yl)benzamide]	
	0.01 to 10	CCCCc1nc(O)c(C(=O)N2CCC(c3ncc(F)cc3F)C2)c(O)c1-c1cccc(C(=O)NC(C)C)c1 (centres unmarked) [Example 146, 3-{2-butyl-5-[3-(3,5-difluoropyridin-2-yl)pyrrolidine-1-carbonyl]-4,6-dihydroxypyridin-3-yl}-N-(propan-2-yl)benzamide]	
	0.01 to 10	CCCCc1nc(O)c(C(=O)N2CCC(c3ncc(F)cc3F)C2)c(O)c1-c1cccc(CO)c1 (centres unmarked) [Example 147, 6-butyl-3-[3-(3,5-difluoropyridin-2-yl)pyrrolidine-1-carbonyl]-5-[3-(hydroxymethyl)phenyl]pyridine-2,4-diol]	
		CCNCc1nc(O)c(C(=O)N2CCC(c3ccccc3F)C2)c(O)c1-c1c(OC)cccc1OC (centres unmarked) [Example 150, 5-(2,6-dimethoxyphenyl)-6-[(ethylamino)methyl]-3-[3-(2-fluorophenyl)pyrrolidine-1-carbonyl]pyridine-2,4-diol]	EC50 (Table 8): 10 to 100 nM
		CCNCc1nc(O)c(C(=O)N2CCC(c3ccccc3F)C2)c(O)c1-c1c(OC)cccc1OC (centres unmarked) [Example 151, 5-(2,6-dimethoxyphenyl)-6-[(ethylamino)methyl]-3-[3-(2-fluorophenyl)pyrrolidine-1-carbonyl]pyridine-2,4-diol]	EC50 (Table 8): 10 to 100 nM
		CCCCc1nc(O)c(C(=O)N2CCN(C(=O)c3cccc(Cl)c3Cl)CC2)c(O)c1-c1c(OC)cccc1OC [Example 153, 6-butyl-3-[4-(2,3-dichlorobenzoyl)piperazine-1-carbonyl]-5-(2,6-dimethoxyphenyl)pyridine-2,4-diol]	EC50 (Table 4): 0.01 to 10 nM
		CCCCc1nc(O)c(C(=O)N2CCN(Cc3cccc(F)c3F)CC2)c(O)c1-c1cccc(OC)c1OC [Example 154, 6-butyl-3-{4-[(2,3-difluorophenyl)methyl]piperazine-1-carbonyl}-5-(2,3-dimethoxyphenyl)pyridine-2,4-diol]	EC50 (Table 4): 0.01 to 10 nM

— patent publication US10392347B2, “2,4-dihydroxy-nicotinamides as APJ agonists” (BRISTOL-MYERS SQUIBB COMPANY, priority 2015, dated 2019)
